Source: patent US20160022625A1, “TASHINONES AND THEIR DERIVATIVES: NOVEL EXCELLENT DRUGS FOR ALZHEIMER DISEASE” (priority 2013, published 2016)
Read-outs that look alike come from different tables or passages of the source.

Tests used:
Aβ1-42 [1] = biological target: T1, Aβ1-42 (Homo sapiens, UniProt P05067); experiment: AFM morphology of Aβ1-42 incubated with tanshinones; settings: Aβ:TS=1:1, within the first 4 hours
T1 construct: Aβ1-42 peptide (≧95.5%) was all purchased from American Peptide Inc; purchased American Peptide Inc. (Sunnyvale, Calif.)
T1 sequence (P05067 672-713 limits assumed): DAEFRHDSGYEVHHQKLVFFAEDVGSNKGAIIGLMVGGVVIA
Description: (§1) To examine the inhibitory effect of TS1 and TS2 on Aβ aggregation, the kinetics and morphological changes of Aβ1-42 amyloid formation in the presence of different molar ratios (Aβ:TS) of two tanshinone compounds were monitored by ThT fluorescence assay and AFM (Atomic force microscopy). 20 μM Aβ1-42 solution (with or without tanshinone) was incubated at 37° C. for 48 h. ThT fluorescence assay has been widely used to detect the formation of amyloid fibrils because the binding of thioflavin dyes to amyloid fibrils enables to reduce self-quenching by restricting the rotation of the benzothiozole and benzaminic rings, leading to a significant increase in fluorescence quantum yield. […] After 24 hour reaction, a strong ThT emission was observed and remained almost unchanged within statistic errors between 24 and 48 hour incubation.
The morphology change of Aβ fibrillization and disruption in the presence and absence of tanshinones was characterized by AFM. A 25 μL sample used in the Aβ1-42 ThT fluorescence assay was taken for AFM measurement at different time points to correlate Aβ morphology change with Aβ grow kinetics. […]

Aβ1-42 [2] = biological target: T1, Aβ1-42; experiment: ThT fluorescence assay of Aβ1-42 amyloid formation (inhibition assay); format: biochemical; settings: 20 μM Aβ1-42, 37° C.; for final ThT fluorescence intensity reduced by: Aβ:TS=1:2, 24 hour
Description: as §1
A homogeneous solution of Aβ monomers was required for inhibition tests. The purified Aβ1-42 powder was aliquoted in DMSO for 1 min and sonicated for 30 sec. The initiation of 20 μM Aβ1-42 [containing 1% (v/v) DMSO] aggregation in solution was accomplished by adding an aliquot of the concentrated DMSO-Aβ1-42 solution to 10 mM PBS buffer, followed by immediate vortexing to mix thoroughly. Aβ1-42 solution was then centrifuged with 14,000 rpm for 30 min at 4° C. to remove any existing oligomers, which 75% of the top solution was removed for further incubation or inhibition experiments. The pure Aβ1-42 solution was incubated at 37° C. as control. For Aβ inhibition experiments, 40 mM tanshinone (in DMSO) stock solution was dissolved in freshly prepared Aβ1-42 monomer solution to a final concentration of 20 μM and 40 μM (with Aβ:tanshinone molar ratio of 1:1 and 1:2), respectively. The mixed Aβ-tanshinone samples were incubated at 37° C.
(§2) Aβ1-42 fibrillization and Aβ1-42 fibril disruption in the presence and absence of tanshinones were monitored by ThT fluorescence assay. 2 mM ThT store solution was prepared by adding 0.0328 g ThT powder into 50 mL DI water. 250 μL of the 2 mM ThT solution was further diluted into 50 mL Tris-buffer (pH=7.4) to reach a final concentration of 10 μM. 60 μL of 20 μM Aβ with or without tanshinone was put into 3 mL of 10 μM ThT-Tris solution. Fluorescence spectra were obtained using a LS-55 fluorescence spectrometer (Perkin Elmer Corp., Waltham, Mass.). All measurements were carried out in aqueous solution using a 1 cm×1 cm quartz cuvette. ThT fluorescence emission intensity of each sample was recorded between 460 and 510 nm with an excitation wavelength of 450 nm. Fluorescence intensity from solution without Aβ1-42 was subtracted from solution containing Aβ1-42. Each experiment was repeated in 3 independent samples and each sample was tested quadrupled.

SH-SY5Y cells [3] = experiment: Live/dead cell toxicity assay, tanshinone alone; format: cell-based
Source text: (§3) In order to determine whether tanshinone compounds are able to protect neuronal cells from toxic Aβ species, we conducted cell viability experiments to compare the toxic effects of Aβ, TS1, TS2, Aβ-TS1, and Aβ-TS2 on the SH-SY5Y cells using the SH-SY5Y live/dead assay, which is widely used in studies of Aβ toxicity. Opti-MEM reduced serum medium was used to minimize the noise of fluorescence. We then set the cell death data obtained from Aβ-cell control experiment as a basis of 100% to normalize other data for comparison. […] When treated the cells with 8 μM TS1 or TS2 alone (Aβ:TS=1:0.4), cell death was 25.3% and 20.5% (FIG. 5), respectively. Considering the physiological concentration of Aβ is as low as 10^-9 M, 8 μM tanshinone may exceed a lethal dose to induce cell death. We thus reduced the concentation of TS1 or TS2 to a clinical trial level of 4 μM for cell viability tests. […] We then performed Aβ-tanshione cell toxicity experiments using a 1:0.2 mixture of tanshinones (4 μM) and Aβ (20 μM). […] TS1 appears to be less toxic than TS2 by 13.8%.
(§4) All chemicals for cell culture were purchased from Life Technologies unless otherwise stated. Human neuroblastoma SH-SY5Y cell (ATCC, Manassas, Va., USA) was used as model neuron and cultured in 75 cm^2 T-flasks (Corning) in sterile-filtered Eagles Minimum Essential Medium and Ham's F-12 medium mixed at a 1:1 ratio containing 10% fetal bovine serum (EMEM, ATCC, Manassas, Va., USA), and 1% penicillin/streptomycin in 37° C., humidified air with 5% CO2. Cells were cultured to confluence, and harvested using 0.25 mg/ml Trypsin/EDTA solution (Lonza). Before adding Aβ and tanshinone, cells were re-suspended in Opti-MEM reduced serum medium and counted using a hemacytometer. Cells were then plated in a 24-well tissue culture plate with approximately 150,000 cells per well in 500 μl of Opti-MEM reduced serum medium, and allowed to attach for 24 hours inside the incubator.
(§5) Aβ oligomers were prepared by incubating a 1 mM Aβ-PBS solution at 37° C. for 24 h. Aβ oligomers with a molar ratio of Aβ:tanshinone of 1:0.2 were added to each well to reach a final concentration of 20 μM. The cells were then left for 24 hours before cell toxicity tests. A live/dead cytotoxicity assay, which determines live and dead cells with two probes by measuring intracellular esterase activity and plasma membrane integrity, was used to obtain cell viability/toxicity data. Cells were stained by adding 2 μM of Calcein AM (Life Technologies) to distinguish the presence of live cells with a fluorescence excitation/emission of 494/517 nm, while by adding 5 μM of Ethidium homodimer-1 (Life Technologies) to distinguish the presence of dead cells with a fluorescence excitation/emission of 528/617 nm. The cells were incubated for 15 minutes with the live/dead assay contents to activate the fluorescent dyes. A Zeiss Axiovert 40 CFL inverted microscope fitted with filters at 510 nm and 600 nm was used to obtain fluorescence images of the live and dead cells. Fluorescence readings at 494/517 nm and 528/617 nm were detected using a Synergry H1 microplate reader (BioTek, Winooski, Vt.). Cell death in each incubation condition was normalized using the equation of ΔF=(Fi/FAβ)*100%, where ΔF is the percentage of cell death in different incubation conditions compared with the death of cells co-incubate with Aβ. Fi corresponds to the dead/live fluorescence signal of cells (blank control), cells co-incubate with TS1, cells co-incubate with TS2, cells co-incubate with Aβ and TS1, cells co-incubate with Aβ and TS2, and cells co-incubate with Aβ, respectively. FAβ represents the dead/live fluorescence signal of cells co-incubate with Aβ. The fluorescence signals of blank dyes were calibrated first and then subtracted from the fluorescence signals of medium solution.

SH-SY5Y cells [4] = experiment: Live/dead cell assay, protection from Aβ-induced toxicity; format: cell-based, Human; settings: for protect cultured-cells from Aβ-induced toxicity by: co-incubation of Aβ with a very small amount of TSs; for percentage of dead cells (normalized to Aβ alone = 100%): tanshinone 4 μM + Aβ 20 μM (1:0.2), 24 hour, SH-SY5Y
Source text: as §3, §4
as §5, with “The cells were incubated for 15 minutes with the live/dead assay contents to activate the fluorescent dyes.” left out, “Cell death in each incubation condition was normalized using the equation of ΔF=(Fi/FAβ)*100%, where ΔF is the percentage of cell death in different incubation conditions compared with the death of cells co-incubate with Aβ.” left out

Aβ1-42 fibrils = biological target: T2, Aβ1-42 fibrils (Homo sapiens, UniProt P05067); experiment: Disruption assay of preformed Aβ fibrils (ThT fluorescence); format: biochemical; settings: 20 μM Aβ fibrils, 37° C.; for decrease in ThT fluorescence of preformed Aβ fibrils vs untreated Aβ control: Aβ:TS=1:1, 48 hour co-incubation; for ThT intensity of preformed Aβ fibrils decreased by: Aβ:TS=1:2, 48 hour co-incubation
T2 construct: Aβ1-42 peptide (≧95.5%) was all purchased from American Peptide Inc; purchased American Peptide Inc. (Sunnyvale, Calif.)
T2 sequence (P05067 672-713 limits assumed): as above
Description: The alternative potential therapeutic strategy to treat AD (Alzheimer's Disease) is to reduce the amount of the existing amyloid plaques. A very few molecules have been reported to disaggregate Aβ amyloid. […] To determine the ability of Aβ fibril dissolution by tanshinone in vitro, we set up experiments in which tanshinone was incubated with preformed fibrils. 20 μM Aβ fibrils were first prepared by incubating Aβ monomers in solution for 48 hour, which is sufficient long enough for Aβ to grow into mature fibrils as evidenced through AFM images and ThT fluorescence (FIG. 2). Upon 48 hour incubation, Aβ fibril solution was then co-incubated with TS1 or TS2 with different molar ratios of Aβ:TS (1:1, 1:2, and 1:5) for another 48 hour at 37° C.
Aβ1-42 fibrils were prepared by incubating 20 μM Aβ1-42 monomers for 48 h, which is sufficient long enough to enable Aβ peptides to grow into mature fibrils at a saturate state. The fibril solution was then divided into aliquots for the disruption tests. […] All the disruption samples were incubated at 37° C.
as §2

SMILES	small spherical particles in AFM images (Aβ1-42 [1])	ThT intensity relative to Aβ samples without inhibitors decreased by (Aβ1-42 [2]; Aβ:TS=1:1, 24 hour)	ThT intensity relative to Aβ samples without inhibitors decreased by (Aβ1-42 [2]; Aβ:TS=1:1, 48 hour)	final ThT fluorescence intensity reduced by (Aβ1-42 [2])	cell death (normalized to Aβ-treated cells = 100%) (SH-SY5Y cells [3]; 4 μM TS alone, 24 hour, SH-SY5Y)	cell death (normalized to Aβ-treated cells = 100%) (SH-SY5Y cells [3]; 8 μM TS alone, 24 hour, SH-SY5Y)	signs of cell death by fluorescence microscopy (SH-SY5Y cells [3]; pure TS, 4 μM level, SH-SY5Y)	protect cultured-cells from Aβ-induced toxicity by (SH-SY5Y cells [4])	less toxic than TS2 by (difference in dead cells) (SH-SY5Y cells [4]; tanshinone 4 μM + Aβ 20 μM)	percentage of dead cells (normalized to Aβ alone = 100%) (SH-SY5Y cells [4])	decrease in ThT fluorescence of preformed Aβ fibrils vs untreated Aβ control (Aβ1-42 fibrils)	ThT intensity of preformed Aβ fibrils decreased by (Aβ1-42 fibrils)	signs of cell death by fluorescence microscopy (SH-SY5Y cells [3])	cell death (normalized to Aβ-treated cells = 100%) (SH-SY5Y cells [3]; human, 24 h, 4 μM)	cell death (normalized to Aβ-treated cells = 100%) (SH-SY5Y cells [3]; human, 24 h, 8 μM)
Cc1coc2c1C(=O)C(=O)c1c-2ccc2c(C)cccc12 [TS1, tanshinone I]	1-3 nm	78.2%	65.8%	88.5%	9.3%	25.3%	no observable signs of cell death	~57.5%	13.8%	~57.5%	~0.8%	~30%	–	–	–
Cc1coc2c1C(=O)C(=O)c1c-2ccc2c1CCCC2(C)C [TS2, tanshinone IIA]	1-6 nm	44.8%	34.6%	83.4%	–	–	–	~71.3%	–	~71.3%	~0.8%	~30%	no observable signs of cell death	5.8%	20.5%
